# Source: article PMC12165799, “Antimicrobial peptide developed with machine learning sequence optimization targets drug resistant Staphylococcus aureus in mice” (The Journal of Clinical Investigation, 2025)
# Where two headings read alike, the source gives them in different places.
# Experiments:
# [1] = tested on: VRSA (S. aureus VRS1) biofilm; assay: Biofilm viability assay on solid support (VRS1); format: cell-based, Staphylococcus aureus; conditions: for Bacterial load of 24 hour established biofilm on solid membrane: S. aureus VRS1, 24 h in PBS
# [2] = tested on: S. aureus MW2 biofilm formation; conditions: for Biofilm formation, biomass (crystal violet), percentage of untreated / Biofilm formation, live-cell viability (XTT), percentage of untreated: 24 hours
# Procedure: 349 Prevention of S. aureus MW2 biofilm formation
# 350 We evaluated the ability of the citropin 1.1-derived peptides to inhibit biofilm formation
# 351 following an established protocol with modifications (5). In short, we prepared exponential
# 352 cultures of S. aureus MW2 (adjusted to OD600 = 0.01) in TSB medium (supplemented with 0.2%
# 353 glucose) from overnight cultures. We added 90 µl of the bacterial culture to 10 µl of serially diluted
# 354 10× peptide solution in flat-bottomed 96-well polystyrene microtiter plates (Cat no. Corning 3595,
# We used TSB medium containing
# 356 bacteria with water as the positive control, while TSB media with sterile water served as the
# 357 negative control. After incubation, we carefully removed the TSB medium and washed the wells
# 358 with PBS (Gibco, MD, USA) to remove loosely attached planktonic cells. We quantified the
# 359 biomass by staining the biofilms with crystal violet following an established protocol and
# 360 quantitated the concentration of peptide that inhibits 50% of biofilm formation (MBIC50)(8). We
# 361 measured the live cell count of the biofilms using XTT dye [2,3-bis(2-methyloxy-4-nitro-5-
# 362 sulfophenyl)-2H-tertazolium-5-carboxanilide] (ATCC, VA, USA).
# S. aureus MW2 membrane = assay: Propidium iodide-based membrane permeability; format: cell-based, Staphylococcus aureus; conditions: S. aureus MW2, 60 minutes
# Procedure: 484 min at room temperature in the dark based on a previously established protocol (8). We added 90
# 485 µl of the dye/bacteria mixture to 10 μl of serially diluted 10× peptide concentration in black, 96-
# 486 well plates (Cat. no. 3904, Corning, NY, USA) and incubated the plates for 1 hour at room
# 487 temperature. We measured the fluorescence with excitation and emission wavelengths of 485 nm
# 488 and 525 nm, respectively in endpoint assay mode using a SpectraMax i3x (Molecular Devices,
# 489 CA, USA) fluorescence reader.
# 490 Propidium iodide-based membrane permeability
# 491 We used a propidium iodide (Thermo Fisher Scientific, MA, USA) fluorescence-based
# 492 bacterial permeation assay to establish membrane-oriented interactions with the designed peptides
# 493 based on a previously established protocol (8). We prepared exponential phase S. aureus MW2
# 494 bacteria and diluted to OD600 = 0.4 in PBS. We added PI dye (final concentration = 2 µM) to the
# 495 bacteria in 1:10 serial dilutions in black, 96-well plates (Cat. no. 3904, Corning, NY, USA) and
# 496 incubated the plates for 1 hour at room temperature. We then measured the fluorescence with an
# 497 excitation wavelength of 584 nm and an emission wavelength of 620 nm in endpoint assay mode
# 498 using a SpectraMax i3x (Molecular Devices, CA, USA) fluorescence reader.
# 501 To determine the ATP leakage potential of the peptides, we employed a luciferase-based
# 502 assay(18). In brief, we washed exponential phase of S. aureus MW2 bacteria three times with PBS
# 503 (pH 7.4) and adjusted the washed cells to OD600 = 0.4 in PBS. Following treatment of the bacteria
# 504 with 32 µg/ml of CIT-8 peptide at 37°C for 30 min, we centrifuged the cells at 14,000× g for 5
# 505 min. We transferred 50 µl of each supernatant fraction to black, clear-bottom, 96-well plates
# S. aureus MW2 = assay: Minimal inhibitory concentration (MIC) assay, broth microdilution; format: cell-based, Staphylococcus aureus
# Procedure: 300 Synthesis of peptides
# 302 Piscataway, NJ, USA).
# 305 Minimal inhibitory concentration (MIC) assay
# We made serial dilutions of 10×
# We determined the MIC using OD600
# Accordingly, we added 150 mM NaCl,
# 319 established protocol (5).
# [3] = tested on: MRSA (S. aureus MW2) biofilm; assay: Biofilm viability assay on solid support (MW2); format: cell-based, Staphylococcus aureus; conditions: for Bacterial load of 24 hour established biofilm on solid membrane: S. aureus MW2, 24 h in PBS
# [4] = 40 μg/mL, 24 h established biofilm
substance,measurement,setting,value
H-GLFKVIKKLLKVI-NH2 [CIT-8],Reduction of viable biofilm cells of VRSA in established biofilms,[1]; 40 μg/mL (abstract),4 log10
same,Reduction of VRSA biofilm burden on solid membrane,[1]; [4],3.8 logs
same,Bacterial load of 24 hour established biofilm on solid membrane,"[1]; 4 μg/ml, replicate 1",4000000
same,Bacterial load of 24 hour established biofilm on solid membrane,"[1]; 4 μg/ml, replicate 2",80000000
same,Bacterial load of 24 hour established biofilm on solid membrane,"[1]; 4 μg/ml, replicate 3",14000000
same,Bacterial load of 24 hour established biofilm on solid membrane,"[1]; 4 μg/ml, replicate 4",40000000
same,Bacterial load of 24 hour established biofilm on solid membrane,"[1]; 4 μg/ml, replicate 5",2000000
same,Bacterial load of 24 hour established biofilm on solid membrane,"[1]; 4 μg/ml, replicate 6",20000000
same,Bacterial load of 24 hour established biofilm on solid membrane,"[1]; 40 μg/ml, replicate 1",16000
same,Bacterial load of 24 hour established biofilm on solid membrane,"[1]; 40 μg/ml, replicate 2",6000
same,Bacterial load of 24 hour established biofilm on solid membrane,"[1]; 40 μg/ml, replicate 3",2400
same,Bacterial load of 24 hour established biofilm on solid membrane,"[1]; 40 μg/ml, replicate 4",18000
same,Bacterial load of 24 hour established biofilm on solid membrane,"[1]; 40 μg/ml, replicate 5",12000
same,Bacterial load of 24 hour established biofilm on solid membrane,"[1]; 40 μg/ml, replicate 6",2200
same,"Biofilm formation, biomass (crystal violet), percentage of untreated","[2]; 4 μg/ml, replicate 1",54.1113
same,"Biofilm formation, live-cell viability (XTT), percentage of untreated","[2]; 4 μg/ml, replicate 1",32.0317
same,"Biofilm formation, biomass (crystal violet), percentage of untreated","[2]; 4 μg/ml, replicate 2",76.6895
same,"Biofilm formation, live-cell viability (XTT), percentage of untreated","[2]; 4 μg/ml, replicate 2",22.3741
same,"Biofilm formation, biomass (crystal violet), percentage of untreated","[2]; 4 μg/ml, replicate 3",101.649
same,"Biofilm formation, live-cell viability (XTT), percentage of untreated","[2]; 4 μg/ml, replicate 3",54.6427
same,"Biofilm formation, biomass (crystal violet), percentage of untreated","[2]; 8 μg/ml, replicate 1",13.6231
same,"Biofilm formation, live-cell viability (XTT), percentage of untreated","[2]; 8 μg/ml, replicate 1",-0.6814
same,"Biofilm formation, biomass (crystal violet), percentage of untreated","[2]; 8 μg/ml, replicate 2",7.383
same,"Biofilm formation, live-cell viability (XTT), percentage of untreated","[2]; 8 μg/ml, replicate 2",-0.6073
same,"Biofilm formation, biomass (crystal violet), percentage of untreated","[2]; 8 μg/ml, replicate 3",9.789
same,"Biofilm formation, live-cell viability (XTT), percentage of untreated","[2]; 8 μg/ml, replicate 3",-0.7036
same,"Biofilm formation, biomass (crystal violet), percentage of untreated","[2]; 16 μg/ml, replicate 1",8.5978
same,"Biofilm formation, live-cell viability (XTT), percentage of untreated","[2]; 16 μg/ml, replicate 1",-0.7406
same,"Biofilm formation, biomass (crystal violet), percentage of untreated","[2]; 16 μg/ml, replicate 2",7.669
same,"Biofilm formation, live-cell viability (XTT), percentage of untreated","[2]; 16 μg/ml, replicate 2",-0.7184
same,"Biofilm formation, biomass (crystal violet), percentage of untreated","[2]; 16 μg/ml, replicate 3",8.622
same,"Biofilm formation, live-cell viability (XTT), percentage of untreated","[2]; 16 μg/ml, replicate 3",-0.5258
same,"Biofilm formation, biomass (crystal violet), percentage of untreated","[2]; 32 μg/ml, replicate 1",7.502
same,"Biofilm formation, live-cell viability (XTT), percentage of untreated","[2]; 32 μg/ml, replicate 1",-0.6814
same,"Biofilm formation, biomass (crystal violet), percentage of untreated","[2]; 32 μg/ml, replicate 2",7.074
same,"Biofilm formation, live-cell viability (XTT), percentage of untreated","[2]; 32 μg/ml, replicate 2",-0.6962
same,"Biofilm formation, biomass (crystal violet), percentage of untreated","[2]; 32 μg/ml, replicate 3",7.812
same,"Biofilm formation, live-cell viability (XTT), percentage of untreated","[2]; 32 μg/ml, replicate 3",-0.5036
same,Concentration killing 50% of biofilm cells during biofilm formation,"[2]; XTT live-cell viability, 24 h",4 µg/mL
same,MBIC50 (biomass reduced by 50%),"[2]; crystal violet, 24 h",6 µg/mL
same,Propidium iodide fluorescence (membrane permeation),S. aureus MW2 membrane,increased fluorescence compared with untreated controls
same,"MIC, Medium only","S. aureus MW2; S. aureus MW2, TSB",4 µg/mL
same,MIC + ZnSO4 (8 μM),"S. aureus MW2; S. aureus MW2, TSB + 8 μM ZnSO4",4 µg/mL
same,MIC + MgSO4 (1 mM),"S. aureus MW2; S. aureus MW2, TSB + 1 mM MgSO4",4 µg/mL
same,MIC + CaCl2 (2.5 mM),"S. aureus MW2; S. aureus MW2, TSB + 2.5 mM CaCl2",4 µg/mL
same,MIC + NaCl (150 mM),"S. aureus MW2; S. aureus MW2, TSB + 150 mM NaCl",4 µg/mL
same,MIC + human serum (5%),"S. aureus MW2; S. aureus MW2, TSB + 5% human serum",8 µg/mL
same,MIC + human serum (10%),"S. aureus MW2; S. aureus MW2, TSB + 10% human serum",8 µg/mL
same,Increase of MIC in human serum,"S. aureus MW2; S. aureus MW2, 5%–10% human serum",2 fold
same,MIC SA,"S. aureus MW2; S. aureus MW2, broth microdilution, TSB, 1 × 10^6 CFU/ml, 37°C 18 h, OD600, duplicate",4 µg/mL
same,Reduction of viable biofilm cells of MRSA in established biofilms,[3]; 40 μg/mL (abstract),3 log10
same,Reduction of MRSA biofilm burden on solid membrane,[3]; [4],2.2 logs
same,Bacterial load of 24 hour established biofilm on solid membrane,"[3]; 4 μg/ml, replicate 1",2200000
same,Bacterial load of 24 hour established biofilm on solid membrane,"[3]; 4 μg/ml, replicate 2",2000000
same,Bacterial load of 24 hour established biofilm on solid membrane,"[3]; 4 μg/ml, replicate 3",3600000
same,Bacterial load of 24 hour established biofilm on solid membrane,"[3]; 4 μg/ml, replicate 4",14000000
same,Bacterial load of 24 hour established biofilm on solid membrane,"[3]; 4 μg/ml, replicate 5",8000000
same,Bacterial load of 24 hour established biofilm on solid membrane,"[3]; 4 μg/ml, replicate 6",3800000
same,Bacterial load of 24 hour established biofilm on solid membrane,"[3]; 40 μg/ml, replicate 1",200000
same,Bacterial load of 24 hour established biofilm on solid membrane,"[3]; 40 μg/ml, replicate 2",400000
same,Bacterial load of 24 hour established biofilm on solid membrane,"[3]; 40 μg/ml, replicate 3",800000
same,Bacterial load of 24 hour established biofilm on solid membrane,"[3]; 40 μg/ml, replicate 4",200000
same,Bacterial load of 24 hour established biofilm on solid membrane,"[3]; 40 μg/ml, replicate 5",600000
same,Bacterial load of 24 hour established biofilm on solid membrane,"[3]; 40 μg/ml, replicate 6",200000
